In article PMC12220852, “An adamantane‐based ligand as a novel chemical tool for thermosensory TRPM8 channel therapeutic modulation” (The Febs Journal, 2025):
Where “and” joins values, the source holds several entries; their conditions need not be identical. Identical values can stand only once.

What was measured:
[1] = target: T1, hTRPV1 (Homo sapiens, UniProt Q8NER1); assay: Whole-cell patch-clamp of capsaicin-evoked currents in HEK293 cells expressing hTRPV1; assay type: cell-based; details: −60 mV
T1 construct: expressed in transfected cells; host or cells: HEK293 (transient, Lipofectamine 3000)
T1 sequence (Q8NER1 whole entry): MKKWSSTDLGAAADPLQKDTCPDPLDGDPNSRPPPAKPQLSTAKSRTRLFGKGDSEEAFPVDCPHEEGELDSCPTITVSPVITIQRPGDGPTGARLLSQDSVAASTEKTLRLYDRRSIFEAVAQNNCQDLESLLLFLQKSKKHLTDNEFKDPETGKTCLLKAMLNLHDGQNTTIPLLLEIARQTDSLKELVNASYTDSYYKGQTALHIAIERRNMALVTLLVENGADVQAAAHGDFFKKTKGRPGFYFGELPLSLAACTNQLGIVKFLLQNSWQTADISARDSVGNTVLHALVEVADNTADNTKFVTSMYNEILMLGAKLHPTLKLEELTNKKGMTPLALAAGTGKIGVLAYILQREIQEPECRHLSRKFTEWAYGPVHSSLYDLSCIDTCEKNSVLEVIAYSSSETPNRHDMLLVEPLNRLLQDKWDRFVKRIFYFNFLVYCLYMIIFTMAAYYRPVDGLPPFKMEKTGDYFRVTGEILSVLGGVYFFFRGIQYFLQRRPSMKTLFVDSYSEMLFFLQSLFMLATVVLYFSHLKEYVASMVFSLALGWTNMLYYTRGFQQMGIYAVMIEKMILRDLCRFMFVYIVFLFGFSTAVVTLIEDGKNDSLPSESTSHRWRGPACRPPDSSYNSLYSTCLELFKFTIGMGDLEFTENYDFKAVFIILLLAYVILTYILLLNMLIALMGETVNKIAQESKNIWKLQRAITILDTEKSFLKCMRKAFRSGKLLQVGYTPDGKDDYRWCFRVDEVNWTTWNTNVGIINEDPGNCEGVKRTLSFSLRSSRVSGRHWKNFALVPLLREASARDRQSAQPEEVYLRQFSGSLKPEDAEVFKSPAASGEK
Description: To evaluate receptor selectivity, we investigated the activity of compound 23 on recombinant hTRPV1 and hTRPA1 channels recombinantly expressed in HEK293 cells (Fig. 4). We choose these thermosensory channels because of their structural similarity and expression in peripheral nociceptive terminals. In addition, some ligand cross‐interaction within these channels has been reported.
Recording through patch‐clamp techniques was performed on HEK293 cells cultured in DMEM GlutaMax with 10% FBS and 1% P/S. The cell lines were authenticated following the standardization of STR Profiling guidelines (ANSI/ATCC ASN‐0002‐2022) using the CLA Identifier Plus PCR Amplification Kit (Thermo Fisher‐A44660) to analyze 16 highly variant human STRs. The cells were confirmed to be mycoplasma‐free. These cells were transiently transfected with plasmids encoding hTRPV1, hTRPM8, or hTRPA1 using Lipofectamine 3000. Transfected cells were seeded on 12 mm Ø glass coverslips treated with poly‐L‐lysine solution and recorded 2 days post‐transfection. […] Leak currents were not subtracted, and conductance was calculated using the equation: G = I/(V − V r), where I is the measured ionic current, V is the applied voltage, and V r is the reversal potential that for the ionic conditions used was set to 0 mV. […]

[2] = target: T2, neuronal TRPM8 channels (mTRPM8) in dorsal root ganglion neurons (Mus musculus, UniProt Q8R4D5); assay: Patch-clamp of WS-12-evoked currents in primary DRG nociceptor cultures; assay type: cell-based, murine; details: WS-12 evoked current, −60 mV, N = 3, n = 8; read-out: IC50 of mTRPM8 current blockade in DRG neurons
T2 construct: neuronal TRPM8 channels expressed in murine primary nociceptor cultures; endogenous in cells; host or cells: primary cultures of mouse dorsal root ganglion neurons
T2 sequence (Q8R4D5 whole entry): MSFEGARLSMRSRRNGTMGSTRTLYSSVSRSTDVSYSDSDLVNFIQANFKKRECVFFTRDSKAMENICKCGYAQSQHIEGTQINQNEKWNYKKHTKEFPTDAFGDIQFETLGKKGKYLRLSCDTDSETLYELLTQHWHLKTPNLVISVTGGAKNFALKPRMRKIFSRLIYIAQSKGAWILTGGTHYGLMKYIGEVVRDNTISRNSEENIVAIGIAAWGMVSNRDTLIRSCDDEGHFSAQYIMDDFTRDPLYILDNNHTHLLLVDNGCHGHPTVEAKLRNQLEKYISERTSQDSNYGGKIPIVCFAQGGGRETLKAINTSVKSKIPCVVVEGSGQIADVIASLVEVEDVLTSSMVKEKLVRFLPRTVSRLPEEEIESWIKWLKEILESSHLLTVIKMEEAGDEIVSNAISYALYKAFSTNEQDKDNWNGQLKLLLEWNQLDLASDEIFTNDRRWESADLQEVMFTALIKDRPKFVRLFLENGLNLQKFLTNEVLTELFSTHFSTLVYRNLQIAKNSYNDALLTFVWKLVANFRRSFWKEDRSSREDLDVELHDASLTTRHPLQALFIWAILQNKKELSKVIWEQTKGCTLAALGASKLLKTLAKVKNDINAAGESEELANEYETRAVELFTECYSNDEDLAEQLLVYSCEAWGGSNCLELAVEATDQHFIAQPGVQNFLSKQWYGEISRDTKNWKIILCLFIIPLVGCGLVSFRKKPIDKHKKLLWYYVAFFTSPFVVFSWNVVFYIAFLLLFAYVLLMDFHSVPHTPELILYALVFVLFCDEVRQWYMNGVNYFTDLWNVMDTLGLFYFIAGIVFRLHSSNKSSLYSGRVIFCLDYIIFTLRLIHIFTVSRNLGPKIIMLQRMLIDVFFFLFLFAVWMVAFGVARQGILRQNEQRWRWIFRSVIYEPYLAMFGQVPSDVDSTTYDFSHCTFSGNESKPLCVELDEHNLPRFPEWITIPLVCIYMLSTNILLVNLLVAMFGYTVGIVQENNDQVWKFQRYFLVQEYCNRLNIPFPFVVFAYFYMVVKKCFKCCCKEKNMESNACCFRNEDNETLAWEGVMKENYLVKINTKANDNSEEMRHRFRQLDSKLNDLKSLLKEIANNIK
From the text: To examine the in vivo activity of compound 23, we first investigated its inhibitory potency on neuronal TRPM8 channels expressed in murine primary nociceptor cultures by patch‐clamp. […] Alternatively, it could also be due to distinct gating mechanisms of both orthologs or the influence of the neuronal environment.
Primary cultures of neonatal dorsal root ganglia were used for multielectrode array (MEA) and patch‐clamp experiments following established methodologies previously described. Neonatal dorsal root ganglia (DRGs) were obtained from Wistar rats (3–5 days old) and were isolated and digested with 0.25% (w/v) collagenase (type IA) in DMEM GlutaMax with 1% (v/v) penicillin/streptomycin (P/S) solution for 1 h at 37 °C in a 5% CO2 Thermo Scientific incubator. Following digestion, DRGs were mechanically dissociated and passed through a 100 μm cell strainer to obtain single‐cell suspensions. Suspensions were washed with DMEM GlutaMax with 10% (v/v) fetal bovine serum (FBS) and 1% (v/v) penicillin/streptomycin (P/S). Cells were then seeded in microelectrode array chambers coated with poly‐L‐lysine (8.3 μg·mL^−1) and laminin (5 μg·mL^−1). After 1 h, the medium was replaced with DMEM GlutaMax, 10% (v/v) FBS, and 1% (v/v) P/S, supplemented with mouse 2.5S NGF 50 ng·mL^−1 and 1.25 μg·mL^−1 cytosine arabinoside. […]

O=C(COC(=O)c1ccccc1-c1ccccc1)NC12CC3CC(CC(C3)C1)C2 [Compound 23, 2‐((3S,5S,7S)‐adamantan‐1‐ylamino)‐2‐oxoethyl [1,1′‐biphenyl]‐2‐carboxylate]
block of hTRPV1‐channel activity ([1]; 1 μM compound, 0.5 μM capsaicin): ≈ 50% | IC50 ([1]; capsaicin-evoked current, n = 6, read-out: IC50 of hTRPV1 current blockade): 1.1 µM and 1 µM | IC50 [2]: 0.43 ± 0.75 µM
